Source: PMC11864979, “First-in-class ultralong-target-residence-time p38α inhibitors as a mitosis-targeted therapy for colorectal cancer” (Nature Cancer, 2025)
Where “and” joins values, the source holds several entries; their conditions need not be identical. Equal values may be shown once.

What was measured:
[1] = test system: immune cells; experiment: FACS quantification of immune cells in blood, spleen, liver and tumors of treated mice;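 as to CD4+, % of CD3+ cells: blood spleen or tumors of KAP liver metastasis mice after 4 days treatment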;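 as to CD69+ % of CD4+ T cells: tumor-free livers or KAP liver tumors after 4 days treatment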;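 as to CD69+ % of CD8+ T cells: tumor-free livers or KAP liver tumors after 4 days treatment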;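 as to CD69+ % of T cells: tumor-free livers or KAP liver tumors after 4 days treatment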;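 as to CD8+, % of CD3+ cells: blood spleen or tumors of KAP liver metastasis mice after 4 days treatment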; type: in vivo, mouse; conditions: for CD4+, % of CD3+ cells / CD8+, % of CD3+ cells / CD69+ % of CD4+ T cells / CD69+ % of CD8+ T cells / CD69+ % of T cells: single animals; for CD4+, % of CD3+ cells / CD8+, % of CD3+ cells: Fig. 6f; for CD69+ % of CD4+ T cells / CD69+ % of CD8+ T cells / CD69+ % of T cells: Fig. 6g; for B cells, % of living cells / CD4+ T cells, % of living cells / CD8+ T cells, % of living cells / Dendritic cells, % of living cells / Granulocytes, % of living cells / Monocytes, % of living cells / NK cells, % of living cells / T cells, % of living cells: spleen, 4 d of treatment
Protocol: To determine immune cells, cell suspensions of peripheral blood, spleen, liver or tumors were prepared. Cells were lysed with ammonium chloride buffer ([…], 0.1 mM EDTA and 0.150 mM KHCO3) to eliminate erythrocytes and were stained with antibodies from Biolegend and the live–dead fixable aqua dead cell stain kit (Thermo Fisher Scientific; dilution: 1:1,000). All used antibodies and dilutions are listed in the Nature Portfolio Reporting Summary. Cells were analyzed with the LSR Fortessa (BD). Samples were gated on single viable cells and the percentage of NK cells (NK1.1^+CD3^−), T cells (CD3^+NK1.1^−), CD4^+ T cells (CD3^+NK1.1^−CD4^+CD8a^−), CD8^+ T cells (CD3^+NK1.1^−CD8a^+CD4^−), B cells (CD3^−NK1.1^−CD19^+Ly6G^−), dendritic cells (CD3^−NK1.1^−CD19^−CD11c^+), monocytes (CD3^−NK1.1^−CD19^−CD11c^−Ly6Ghigh^+CD16/32low^+) and granulocytes (CD3^−NK1.1^−CD19^−CD11c^−Ly6G^+CD16/32high^+) was calculated.

[2] = test system: KMP primary CRCs; experiment: survival of mice with KMP primary CRCs (cecum injection); type: in vivo, mouse
Protocol: Subcutaneous injection, splenic seeding or cecum injection of organoids was performed in 8–10-week-old C57BL/6 N/Crl, Rag2^−/− (B6.Cg-Rag2^tm1.1Cgn/J), or CB17 Scid beige (CB17.Cg-Prkdc^scidLyst^bg-J/Crl) mice, obtained from Charles River. The organoids were dissociated into single cells, washed with PBS and injected in a 1:1 mixture of PBS and Matrigel. For murine organoids, 1 × 10^5 cells were injected into the left and right flanks or the spleen capsule and 2 × 10^6 cells were injected into the cecum wall. For human organoids, 4 × 10^5 cells were injected into the flanks of CB17 Scid beige mice. For splenic seeding and cecum injection, mice were anaesthetized using ketamine (100 mg kg^−1, intraperitoneally) and xylazin (10 mg/kg, intraperitoneally) in NaCl and a small laparotomy below the thorax was performed.
No mice were excluded during treatment studies.

## CNC(=O)c1ccc2c(c1)C(=O)c1ccc(Nc3ccc(F)c(NC(=O)C4CC4)c3)cc1CC2 [Compound 2015]
[1]; 4 days of treatment
  CD4^+ T cells in CRC liver metastases (in words): increases the number of CD4^+ T cells
[1]; Blood
  CD4+, % of CD3+ cells: 59.0% and 54.5% and 53.0% and 56.9%
  CD8+, % of CD3+ cells: 35.8% and 35.1% (2×) and 39.0%
[1]; Liver
  CD69+ % of CD4+ T cells: 11.90% and 8.89% and 6.59% and 10.70%
  CD69+ % of CD8+ T cells: 5.92% and 8.71% and 6.52% and 6.93%
  CD69+ % of T cells: 9.86% and 8.16% and 6.40% and 10.30%
[1]; Spleen
  CD4+, % of CD3+ cells: 67.8% and 63.7% and 64.1% and 65.2%
  CD8+, % of CD3+ cells: 25.5% and 28.8% and 28.3% and 27.0%
[1]; Tumor
  CD4+, % of CD3+ cells: 74.4% and 79.8% and 62.9%
  CD8+, % of CD3+ cells: 13.6% and 8.5% and 20.0%
  CD69+ % of CD4+ T cells: 56.80% and 69.90% and 47.60%
  CD69+ % of CD8+ T cells: 44.60% and 54.20% and 52.00%
  CD69+ % of T cells: 49.80% and 60.30% and 42.10%
[1]; healthy mice
  B cells, % of living cells: 45.80% and 42.90% and 40.80% and 40.90%
  CD4+ T cells, % of living cells: 22.70% and 22.50% and 25.00% and 24.30%
  CD8+ T cells, % of living cells: 10.00% and 8.13% and 10.80%
  Dendritic cells, % of living cells: 2.32% and 3.09% and 2.65% and 2.11%
  Granulocytes, % of living cells: 4.12% and 5.18% and 4.35% and 4.21%
  Monocytes, % of living cells: 2.59% and 2.56% and 2.30% and 2.36%
  NK cells, % of living cells: 2.30% and 4.22% and 4.00% and 4.77%
  T cells, % of living cells: 35.20% and 32.90% and 37.90% and 36.50%
[1]; tumor mice (KAP metastases)
  B cells, % of living cells: 40.60% and 49.20% and 45.00% and 44.10%
  CD4+ T cells, % of living cells: 26.10% and 18.70% and 20.10% and 20.40%
  CD8+ T cells, % of living cells: 9.80% and 8.43% and 8.87% and 8.45%
  Dendritic cells, % of living cells: 3.14% and 2.58% and 3.53% and 2.01%
  Granulocytes, % of living cells: 3.71% and 4.06% and 4.14% and 4.54%
  Monocytes, % of living cells: 3.31% and 3.61% and 4.85% and 6.16%
  NK cells, % of living cells: 3.40% and 4.06% and 3.95% and 4.77%
  T cells, % of living cells: 38.40% and 29.30% and 31.40% and 31.30%
[2]; individual mice, KMP primary CRC, treatment started 9 days after transplantation
  Survival (d of treatment): 24 days and 15 days and 11 days and 25 days and 21 days and 13 days and 18 days
[2]; individual mice, KMP primary CRC, meaning of 1/0 not given
  Kaplan–Meier event entry in 2015 (1 or 0): 1 and 0
[2]; start 9 days after organoid injection
  survival of mice with KMP primary CRC (in words): significantly prolonged survival
